Values of other authors in US20100035978A1, “COMBINATION OF CANNABINOIDS FOR THE TREATMENT OF PERIPHERAL NEUROPATHIC PAIN” (GW Pharma Limited, priority 2005, published 2010).

Tested on: patients taking carbamezepine

NC(=O)N1c2ccccc2C=Cc2ccccc21 [carbamezepine]
increase in the risk of blood dyscrasias (post-marketing studies): five- to eight-fold | patients with a 25% decrease in white blood cell count (usually reverses within the first 4 months of therapy): 7%
